Molecules are shown by their SMILES.

For the assay, the target named is T1, hNPRA (Homo sapiens, UniProt P16066).
T1 construct: expressed in transfected cells
T1 sequence (P16066 33-1061): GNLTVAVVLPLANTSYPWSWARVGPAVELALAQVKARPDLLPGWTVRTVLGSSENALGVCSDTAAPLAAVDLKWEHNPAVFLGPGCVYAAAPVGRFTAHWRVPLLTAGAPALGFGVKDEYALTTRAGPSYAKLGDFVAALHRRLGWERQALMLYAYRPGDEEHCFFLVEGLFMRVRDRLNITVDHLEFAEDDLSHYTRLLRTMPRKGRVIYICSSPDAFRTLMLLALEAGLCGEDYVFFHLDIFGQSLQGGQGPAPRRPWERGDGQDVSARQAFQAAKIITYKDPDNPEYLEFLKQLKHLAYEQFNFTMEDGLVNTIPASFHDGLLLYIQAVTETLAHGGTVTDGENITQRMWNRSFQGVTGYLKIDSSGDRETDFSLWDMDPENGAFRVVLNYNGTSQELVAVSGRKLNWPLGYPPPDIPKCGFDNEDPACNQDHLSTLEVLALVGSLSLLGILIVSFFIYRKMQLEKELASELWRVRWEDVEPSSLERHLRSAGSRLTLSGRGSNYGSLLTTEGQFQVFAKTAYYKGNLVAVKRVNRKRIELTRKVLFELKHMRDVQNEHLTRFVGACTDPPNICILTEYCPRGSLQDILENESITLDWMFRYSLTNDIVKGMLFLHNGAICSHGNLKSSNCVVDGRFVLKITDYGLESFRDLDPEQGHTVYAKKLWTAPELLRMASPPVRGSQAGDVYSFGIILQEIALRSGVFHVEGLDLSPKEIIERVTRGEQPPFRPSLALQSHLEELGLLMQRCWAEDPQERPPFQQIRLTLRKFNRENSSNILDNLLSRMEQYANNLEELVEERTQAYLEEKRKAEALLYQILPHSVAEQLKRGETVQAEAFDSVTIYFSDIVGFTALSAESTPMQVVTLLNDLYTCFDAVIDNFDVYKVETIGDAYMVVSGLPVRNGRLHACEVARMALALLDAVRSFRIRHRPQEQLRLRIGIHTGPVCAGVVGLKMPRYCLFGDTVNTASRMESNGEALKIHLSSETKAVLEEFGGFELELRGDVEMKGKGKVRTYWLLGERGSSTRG
Description: NPRA Functional Cell Assay (cGMP HTRF). It is filed as cell-based. The note with it: Human NPRA HEK JumpIn stable cells; cGMP by HTRF after 1 hour at 37° C.; 10-point dose response. The source says: Assay Buffer components HEPES and Opti-MEM® I Reduced-Serum with Glutamine (no phenol red) were from Gibco/Invitrogen (Thermo Fisher Scientific, Waltham, Mass. USA). 3-Isobutyl-1-methylxanthine (IBMX) and 4-(3-Butoxy-4-methoxybenzyl)imidazolidin-2-one (RO20) were obtained from Sigma-Aldrich (St. Louis, Mo., USA). DPBS (Dulbecco's phosphate-buffered saline) without Ca2+ and Mg2+ was purchased from GE Healthcare Bio-Sciences (Pittsburgh, Pa., USA). 384 well white Optiplates were from Perkin Elmer (Atlantic Highlands, N.J., USA). Human ANP (Atrial Natriuretic Peptide) (1-28) was purchased from Sigma-Aldrich (Catalog #A1663) and rat ANP (1-28) from Bachem (Torrance, Calif., USA) (Catalog #H2100). Human-BNP (Human-Brain Natriuretic Peptide) (1-32 AA) was purchased from American Peptide Company (Sunnyvale, Calif., USA) (product No. 14-1-90). cGMP kits were purchased from Cisbio. The assay ready frozen (ARF) Human/rat/dog NPRA HEK JumpIn Stable frozen cells (low passage number 5-11) were prepared in-house.
Test compounds were titrated in DMSO in a 10-point dose response in a separate step followed by a 100-fold dilution into the reaction. Positive response for each assay was determined using 10 nM rat-ANP peptide (rat cells) or 50 nM h-ANP peptide (human and dog cells).
Cells were thawed, washed with DPBS and resuspended in assay buffer (Opti-MEM+Glutamine, phenol red free media, 10 mM HEPES, 100 uM IBMX and 100 uM RO20) that was warmed to 37° C. Cells were then transferred to microplates via a Microplate Combi dispenser at a density of 1500, 400 and 1200 cells/well for human, rat and dog cells respectively, followed by acoustic transfer (Echo) of compound.
Compounds and cells were incubated at 37° C. with 5% CO2 for 1 hour, after which the cells were lysed and cGMP was captured using a CisBio cGMP HTRF assay kit. The TRF signal was measured with an Envision plate reader (emission set to 615 and 665 nm) after 1 hour incubation at ambient temperature. The TRF signal was converted to [cGMP] through the use of a cGMP calibration curve on each microplate. EC50's were generated from the resulting dose response curves by use of a 4 parameter logistic algorithm.
Assay Buffer components HEPES and Opti-MEM® I Reduced-Serum with Glutamine (no phenol red) were from Gibco/Invitrogen. 3-Isobutyl-1-methylxanthine (IBMX) and 4-(3-Butoxy-4-methoxybenzyl)imidazolidin-2-one (RO20) were obtained from Sigma. DPBS (Dulbecco's phosphate-buffered saline) without Ca2+ and Mg2+ was purchased from GE Healthcare Bio-Sciences (Pittsburgh, Pa., USA). 384 well white Optiplates were from Perkin Elmer (Atlantic Highlands, N.J., USA). Human ANP (1-28) was purchased from Sigma (A1663) and rat ANP (1-28) from Bachem (H2100). Human-BNP (1-32 AA) was purchased from American Peptide Company (Sunnyvale, Calif., USA) (product No. 14-1-90). cGMP kits were purchased from Cisbio (Bedford, Mass., USA). The assay ready frozen (ARF) Human/rat/dog NPRA HEK JumpIn Stable frozen cells (low passage number 5-11) were prepared in-house.
Compounds and cells were incubated at 37° C. with 5% CO2 for 1 hour, after which the cells were lysed and cGMP was captured using a CisBio cGMP HTRF assay kit. The TRF signal was measured with an Envision® plate reader (Perkin Elmer)(emission set to 615 and 665 nm) after 1 hour incubation at ambient temperature. The TRF signal was converted to [cGMP] through the use of a cGMP calibration curve on each microplate. EC50's were generated from the resulting dose response curves by use of a 4 parameter logistic algorithm.
hNPRA EC50 (nM) are were determined for the compounds of Example 1 through 273 and are reported in the Experimental section of this application.
`CC(C)[C@]1(F)CCc2nc3c(F)cc(C(=O)N[C@H](CCN4CCCC4)c4ccc(-c5ccnnc5)nc4)cc3cc2C1` (racemic) [Example 35, rac-(7S)-4,7-difluoro-7-isopropyl-N-[rac-(1R)-1-(6-pyridazin-4-yl-3-pyridyl)-3-pyrrolidin-1-ium-1-yl-propyl]-6,8-dihydro-5H-acridine-2-carboxamide;2,2,2-trifluoroacetate] showed an EC50 of 285 nM. Then `CC(C)[C@]1(F)CCc2nc3c(F)cc(C(=O)N[C@H](CCN4CCC[C@H](O)C4)c4ccc(-c5ccnnc5)nc4)cc3cc2C1` (racemic) [Example 36, rac-(7S)-4,7-difluoro-7-isopropyl-N-[rac-(1R)-1-(6-pyridazin-4-yl-3-pyridyl)-3-[rac-(3S)-3-hydroxypiperidin-1-ium-1-yl]propyl]-6,8-dihydro-5H-acridine-2-carboxamide;2,2,2-trifluoroacetate], with 260 nM; and `CC(C)[C@]1(F)CCc2nc3c(F)cc(C(=O)N[C@H](CCN(C)C)c4ccc(-c5ccnnc5)nc4)cc3cc2C1` (racemic) [Example 37, dimethyl-[rac-(3R)-3-(6-pyridazin-4-yl-3-pyridyl)-3-[[rac-(7S)-4,7-difluoro-7-isopropyl-6,8-dihydro-5H-acridine-2-carbonyl]amino]propyl]ammonium;2,2,2-trifluoroacetate], with 270 nM; and `CC(C)[C@]1(F)CCc2nc3c(F)cc(C(=O)N[C@H](CCN4CCC5(CCOC5)CC4)c4ccc(-c5ccnnc5)nc4)cc3cc2C1` (racemic) [Example 38, rac-(7S)-4,7-difluoro-7-isopropyl-N-[rac-(1R)-3-(2-oxa-8-azoniaspiro[4.5]decan-8-yl)-1-(6-pyridazin-4-yl-3-pyridyl)propyl]-6,8-dihydro-5H-acridine-2-carboxamide;2,2,2-trifluoroacetate], with 317 nM.

In turn, `CC(C)[C@]1(F)CCc2nc3c(F)cc(C(=O)N[C@H](CCN4CCC5(CC4)CC5CO)c4ccc(-c5ccnnc5)nc4)cc3cc2C1` (mixture of isomers) [Example 39, rac-(7S)-4,7-difluoro-7-isopropyl-N-[rac-(1R)-3-[2-(hydroxymethyl)-6-azoniaspiro[2.5]octan-6-yl]-1-(6-pyridazin-4-yl-3-pyridyl)propyl]-6,8-dihydro-5H-acridine-2-carboxamide;2,2,2-trifluoroacetate] gave a half-maximal effective concentration (EC50) of 258 nM. The EC50 values of the last two compounds are within 1.5-fold of each other. Compound `CC(C)[C@]1(F)CCc2nc3c(F)cc(C(=O)N[C@H](CCN4CCC[C@@H](O)C4)c4ccc(-c5ccnnc5)nc4)cc3cc2C1` (racemic) [Example 40, rac-(7S)-4,7-difluoro-7-isopropyl-N-[rac-(1R)-1-(6-pyridazin-4-yl-3-pyridyl)-3-[rac-(3R)-3-hydroxypiperidin-1-ium-1-yl]propyl]-6,8-dihydro-5H-acridine-2-carboxamide;2,2,2-trifluoroacetate] gave an EC50 of 338 nM. `CC(O)C1CCN(CC[C@@H](NC(=O)c2cc(F)c3nc4c(cc3c2)C[C@](F)(C(C)C)CC4)c2ccc(-c3ccnnc3)nc2)CC1` (mixture of isomers) [Example 41, rac-(7S)-4,7-difluoro-7-isopropyl-N-[rac-(1R)-3-[4-(1-hydroxyethyl)piperidin-1-ium-1-yl]-1-(6-pyridazin-4-yl-3-pyridyl)propyl]-6,8-dihydro-5H-acridine-2-carboxamide;2,2,2-trifluoroacetate] registered an EC50 of 236 nM. The EC50 values of the last two compounds are within 1.5-fold of each other. Then `CC(C)[C@]1(F)CCc2nc3c(F)cc(C(=O)N[C@H](CCN4CCC5CCCCC5C4)c4ccc(-c5ccnnc5)nc4)cc3cc2C1` (mixture of isomers) [Example 42, rac-(7S)-4,7-difluoro-7-isopropyl-N-[rac-(1R)-3-(1,2,3,4,4a,5,6,7,8,8a-decahydroisoquinolin-2-ium-2-yl)-1-(6-pyridazin-4-yl-3-pyridyl)propyl]-6,8-dihydro-5H-acridine-2-carboxamide;2,2,2-trifluoroacetate], with 375 nM. The compound `CC(C)[C@]1(F)CCc2nc3c(F)cc(C(=O)N[C@H](CCN4CCCCC4CCN(C)C)c4ccc(-c5ccnnc5)nc4)cc3cc2C1` (mixture of isomers) [Example 43, rac-(7S)-4,7-difluoro-7-isopropyl-N-[rac-(1R)-3-[2-[2-(dimethylamino)ethyl]piperidin-1-ium-1-yl]-1-(6-pyridazin-4-yl-3-pyridyl)propyl]-6,8-dihydro-5H-acridine-2-carboxamide;2,2,2-trifluoroacetate] had an EC50 of 216 nM. `CC1CCCCN1CC[C@@H](NC(=O)c1cc(F)c2nc3c(cc2c1)C[C@](F)(C(C)C)CC3)c1ccc(-c2ccnnc2)nc1` (mixture of isomers) [Example 44, rac-(7S)-4,7-difluoro-7-isopropyl-N-[rac-(1R)-3-(2-methylpiperidin-1-ium-1-yl)-1-(6-pyridazin-4-yl-3-pyridyl)propyl]-6,8-dihydro-5H-acridine-2-carboxamide;2,2,2-trifluoroacetate] came in with an EC50 of 150 nM. Compound `CC(C)[C@]1(F)CCc2nc3c(F)cc(C(=O)N[C@H](CCN4CCC(CO)CC4)c4ccc(-c5ccnnc5)nc4)cc3cc2C1` (racemic) [Example 45, rac-(7S)-4,7-difluoro-7-isopropyl-N-[rac-(1R)-3-[4-(hydroxymethyl)piperidin-1-ium-1-yl]-1-(6-pyridazin-4-yl-3-pyridyl)propyl]-6,8-dihydro-5H-acridine-2-carboxamide;2,2,2-trifluoroacetate] gave a 50% effective concentration (EC50) of 136 nM. For `COCC1CCN(CC[C@@H](NC(=O)c2cc(F)c3nc4c(cc3c2)C[C@](F)(C(C)C)CC4)c2ccc(-c3ccnnc3)nc2)CC1` (racemic) [Example 46, rac-(7S)-4,7-difluoro-7-isopropyl-N-[rac-(1R)-3-[4-(methoxymethyl)piperidin-1-ium-1-yl]-1-(6-pyridazin-4-yl-3-pyridyl)propyl]-6,8-dihydro-5H-acridine-2-carboxamide;2,2,2-trifluoroacetate], the EC50 was 204 nM.

The record behind these values is patent US20220281886A1, “NATRIURETIC PEPTIDE RECEPTOR A AGONISTS USEFUL FOR THE TREATMENT OF CARDIOMETABOLIC DISEASES, KIDNEY DISEASE AND DIABETES” (Merck Sharp & Dohme Corp., priority 2019, published 2022).
